From US10239843B2 (CANCER RESEARCH TECHNOLOGY LIMITED, priority 2014, dated 2019) come the findings set out here.

One test concerns PARG in HeLa cell line. Kind of test: PARG cell assay (PAR chain immunofluorescence after MMS). It counts as cell-based. As to conditions: HeLa cells. The procedure, abridged:
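Nuclear poly(ADP-ribose) chains in HeLa cells are read by indirect immunofluorescence with a mouse anti-PAR antibody applied overnight at 4° C after fixing and permeabilising. Cells get 1 h of compound, then 50 μg/mL MMS (final) for another hour. PAR persisting at that point reflects PARG inhibition.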

A further test has as its target Human Full Length PARG (Homo sapiens (Human), UniProt Q86W56). In words: PARG enzyme assay (TR-FRET). Type of test: biochemical.
Where [1] appears, read: MMS treatment, read-out: PARG Cell IC50.
The mark [2] stands for this setting: Homo sapiens, MMS treatment, read-out: PARG Cell IC50.
[3] abbreviates: read-out: PARG Biochem IC50 Geomean.
[4] abbreviates: Homo sapiens, MMS 50 μg/mL, read-out: PARG Cell IC50 Geomean.

Like-named read-outs stand apart in the source and are kept apart here.

Chain of Human Full Length PARG (Q86W56 whole entry): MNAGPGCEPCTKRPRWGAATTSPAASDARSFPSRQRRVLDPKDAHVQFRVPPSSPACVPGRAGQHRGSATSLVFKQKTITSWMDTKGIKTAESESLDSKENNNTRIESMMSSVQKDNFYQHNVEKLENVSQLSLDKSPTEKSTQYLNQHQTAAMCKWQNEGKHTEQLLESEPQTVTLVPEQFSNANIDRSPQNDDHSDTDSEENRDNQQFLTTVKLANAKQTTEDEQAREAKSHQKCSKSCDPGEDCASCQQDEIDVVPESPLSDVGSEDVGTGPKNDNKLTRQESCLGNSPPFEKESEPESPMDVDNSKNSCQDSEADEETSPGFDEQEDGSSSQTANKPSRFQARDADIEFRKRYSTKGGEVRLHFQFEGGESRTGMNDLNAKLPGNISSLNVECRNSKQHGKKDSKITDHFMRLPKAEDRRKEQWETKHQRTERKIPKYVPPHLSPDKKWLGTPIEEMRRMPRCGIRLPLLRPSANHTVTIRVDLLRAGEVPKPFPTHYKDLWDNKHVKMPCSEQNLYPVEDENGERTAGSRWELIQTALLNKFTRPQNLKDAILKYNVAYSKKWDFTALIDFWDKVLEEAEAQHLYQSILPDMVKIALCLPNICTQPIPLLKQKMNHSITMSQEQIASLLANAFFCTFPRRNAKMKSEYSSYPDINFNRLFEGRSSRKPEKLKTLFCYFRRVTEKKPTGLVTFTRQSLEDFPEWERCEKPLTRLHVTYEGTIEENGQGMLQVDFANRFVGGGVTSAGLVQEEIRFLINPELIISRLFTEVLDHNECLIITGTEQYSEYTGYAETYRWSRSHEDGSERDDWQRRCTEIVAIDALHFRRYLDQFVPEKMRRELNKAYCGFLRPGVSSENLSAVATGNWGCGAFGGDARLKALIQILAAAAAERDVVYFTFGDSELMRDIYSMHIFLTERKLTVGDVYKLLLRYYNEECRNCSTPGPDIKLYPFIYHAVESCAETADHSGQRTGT

As to `CCCCn1c(=O)n(Cc2cc(C)no2)c(=O)c2cc(S(=O)(=O)NC3(CF)CC3)ccc21` [Example 536, 1-Butyl-N-[1-(fluoromethyl)cyclopropyl]-3-[(3-methylisoxazol-5-yl)methyl]-2,4-dioxo-quinazoline-6-sulfonamide], the IC50 with PARG in HeLa cell line (setting [1]) was 376 nM; at Human Full Length PARG (read-out: PARG Biochem IC50), 261 nM.
Regarding `Cc1cc(Cn2c(=O)c3cc(S(=O)(=O)NC4(C)CC4)cc(-c4cnn(C)c4)c3n(C)c2=O)on1` [Example 483, 1-Methyl-N-(1-methylcyclopropyl)-3-[(3-methylisoxazol-5-yl)methyl]-8-(1-methylpyrazol-4-yl)-2,4-dioxo-quinazoline-6-sulfonamide], the IC50 came out at 845 nM with PARG in HeLa cell line (setting [2]) and 1690 nM on Human Full Length PARG (read-out: PARG Biochem IC50).
For the compound `Cc1cc(Cn2c(=O)c3cc(S(=O)(=O)NC4(C)CC4)ccc3n(CC3CC(C)(C)C3)c2=O)on1` [Example 477, 1-[(3,3-Dimethylcyclobutyl)methyl]-N-(1-methylcyclopropyl)-3-[(3-methylisoxazol-5-yl)methyl]-2,4-dioxo-quinazoline-6-sulfonamide], the IC50 with PARG in HeLa cell line (setting [1]) was 403 nM; at Human Full Length PARG (read-out: PARG Biochem IC50), 208 nM.
Regarding `CN(C)CCn1c(=O)n(Cc2cnn(C)c2)c(=O)c2cc(S(=O)(=O)NC3(C)CC3)ccc21` [Example 235], the IC50 with PARG in HeLa cell line (MMS 50 μg/mL, read-out: PARG Cell IC50 Geomean) was 314 nM; at Human Full Length PARG (setting [3]), 224 nM.
On to `Cn1cc(Cn2c(=O)c3cc(S(=O)(=O)NC4(C#N)CC4)ccc3n(Cc3cnn(C)c3)c2=O)cn1` [Example 378], for which the IC50 came to 1960 nM with PARG in HeLa cell line (setting [4]) and 44 nM on Human Full Length PARG (setting [3]).
With `Cc1cc(CN2C(=O)c3cccc4cc(S(=O)(=O)NC5(C)CC5)cc(c34)C2=O)on1` [Example 464, N-(1-Methylcyclopropyl)-2-[(3-methylisoxazol-5-yl)methyl]-1,3-dioxo-benzo[de]isoquinoline-5-sulfonamide], the results for the IC50 with PARG in HeLa cell line (setting [2]) and at Human Full Length PARG (read-out: PARG Biochem IC50) were 1080 nM and 1040 nM, respectively.
Turning to `Cn1cc(Cn2c(=O)c3cc(S(=O)(=O)NC4(CF)CC4)ccc3n(Cc3cnsc3)c2=O)cn1` [Example 577, N-[1-(Fluoromethyl)cyclopropyl]-1-(isothiazol-4-ylmethyl)-3-[(1-methylpyrazol-4-yl)methyl]-2,4-dioxo-quinazoline-6-sulfonamide], the results for the IC50 in the test on PARG in HeLa cell line (setting [1]) and on Human Full Length PARG (read-out: PARG Biochem IC50) were 36 nM and 24 nM, respectively.
Turning to `Cn1cc(Cn2c(=O)c3cc(S(=O)(=O)NC4(CF)CC4)ccc3n(Cc3cn[nH]c3)c2=O)cn1` [Example 590, N-[1-(Fluoromethyl)cyclopropyl]-3-[(1-methylpyrazol-4-yl)methyl]-2,4-dioxo-1-(1H-pyrazol-4-ylmethyl)quinazoline-6-sulfonamide], the results for the IC50 in the test with PARG in HeLa cell line (setting [2]) and on Human Full Length PARG (read-out: PARG Biochem IC50) were 773 nM and 30 nM, respectively.
On to `Cc1cc(Cn2c(=O)n(Cc3cnn(C)c3)c(=O)c3cc(S(=O)(=O)NC4(C#N)CC4)ccc32)n(C)n1` [Example 345], for which the IC50 with PARG in HeLa cell line (setting [4]) came out at 2880 nM; on Human Full Length PARG (setting [3]) it was 61 nM.
The corresponding values for `Cc1cc(Cn2c(=O)c3cc(S(=O)(=O)NC4(C)CC4)ccc3n(CCCN(C)C)c2=O)on1` [Example 247] are 310 nM and 404 nM.
On to `Cn1cc(Cn2c(=O)c3cc(S(=O)(=O)NC4(C)CC4)c(F)cc3n(CC3COC3)c2=O)cn1` [Example 394, 7-Fluoro-N-(1-methylcyclopropyl)-3-[(1-methylpyrazol-4-yl)methyl]-1-(oxetan-3-ylmethyl)-2,4-dioxo-quinazoline-6-sulfonamide], for which the IC50 with PARG in HeLa cell line (setting [4]) amounted to 326 nM; at Human Full Length PARG (setting [3]), 66 nM.
For `Cn1cc(Cn2c(=O)c3cc(S(=O)(=O)NC4(CF)CC4)ccc3n(Cc3cncn3C)c2=O)cn1` [Example 588, N-[1-(Fluoromethyl)cyclopropyl]-1-[(3-methylimidazol-4-yl)methyl]-3-[(1-methylpyrazol-4-yl)methyl]-2,4-dioxo-quinazoline-6-sulfonamide], the values for the IC50 with PARG in HeLa cell line (setting [2]) and on Human Full Length PARG (read-out: PARG Biochem IC50) were 1500 nM and 19 nM, respectively.
As for `Cn1c(=O)c2cc(S(=O)(=O)NC3(C)CC3)ccc2n(Cc2cnc(Cl)s2)c1=O` [Example 145], the IC50 in the test on PARG in HeLa cell line (setting [4]) came out at 342 nM; on Human Full Length PARG (setting [3]), 151 nM.
The corresponding values for `Cn1cc(Cn2c(=O)c3cc(S(=O)(=O)NC4(C#N)CC4)ccc3n(CC3CCOC3)c2=O)cn1` (centres unmarked) [Example 377] are 3990 nM and 96 nM.
Take `Cc1ccc(Cn2c(=O)n(Cc3cnn(C)c3)c(=O)c3cc(S(=O)(=O)NC4(CF)CC4)ccc32)cn1` [Example 573, N-[1-(Fluoromethyl)cyclopropyl]-3-[(1-methylpyrazol-4-yl)methyl]-1-[(6-methyl-3-pyridyl)methyl]-2,4-dioxo-quinazoline-6-sulfonamide]: the IC50 in the test on PARG in HeLa cell line (setting [2]) amounted to 167 nM; at Human Full Length PARG (read-out: PARG Biochem IC50), 71 nM.
For the compound `Cn1cc(Cn2c(=O)c3cc(S(=O)(=O)NC4(C)CC4)ccc3n(CC3(C)CC3(F)F)c2=O)cn1` (centres unmarked) [Example 329], the IC50 in the test with PARG in HeLa cell line (setting [4]) is 129 nM; at Human Full Length PARG (setting [3]), 114 nM.
Turning to `Cc1ncc(Cn2c(=O)n(Cc3cnn(C)c3)c(=O)c3cc(S(=O)(=O)NC4(CF)CC4)ccc32)s1` [Example 594, N-[1-(Fluoromethyl)cyclopropyl]-3-[(1-methylpyrazol-4-yl)methyl]-1-[(2-methylthiazol-5-yl)methyl]-2,4-dioxo-quinazoline-6-sulfonamide], the figures for the IC50 with PARG in HeLa cell line (setting [2]) and on Human Full Length PARG (read-out: PARG Biochem IC50) were 22 nM and 25 nM, respectively.
The corresponding values for `Cc1cc(Cn2c(=O)c3cc(S(=O)(=O)NC4(CF)CC4)ccc3n(CC(F)(F)F)c2=O)on1` [Example 622, N-[1-(Fluoromethyl)cyclopropyl]-3-[(3-methylisoxazol-5-yl)methyl]-2,4-dioxo-1-(2,2,2-trifluoroethyl)quinazoline-6-sulfonamide] are 228 nM and 355 nM.
Take `Cn1cc(Cn2c(=O)c3cc(S(=O)(=O)NC4(C)CC4)ccc3n(CC3CCCO3)c2=O)cn1` (centres unmarked) [Example 258]: the IC50 is 131 nM in the test on PARG in HeLa cell line (setting [4]) and 169 nM at Human Full Length PARG (setting [3]).
Taken in the same sequence, the figures for `Cn1cc(Cn2c(=O)c3cc(S(=O)(=O)NC4(C)CC4)ccc3n(CC3(C)COC3)c2=O)cn1` [Example 294] were 226 nM and 47 nM.
On to `Cc1cc(Cn2c(=O)n(Cc3cnn(C)c3)c(=O)c3cc(S(=O)(=O)NC4(C)CC4)ccc32)on1` [Example 379], for which the IC50 with PARG in HeLa cell line (setting [4]) turned out to be 77 nM; at Human Full Length PARG (setting [3]), 35 nM.
Taken in the same sequence, the figures for `Cn1c(=O)c2cc(S(=O)(=O)NC3(C)CC3)ccc2n(Cc2ccccc2C#N)c1=O` [Example 68] were 306 nM and 324 nM.
As to `C#CCn1c(=O)n(Cc2cc(C)no2)c(=O)c2cc(S(=O)(=O)NC3(C)CC3)ccc21` [Example 198], the figures for the IC50 in the test on PARG in HeLa cell line (setting [4]) and at Human Full Length PARG (setting [3]) were 76 nM and 105 nM, respectively.
The corresponding values for `Cc1cc(Cn2c(=O)c3cc(S(=O)(=O)NC4(C)CC4)ccc3n(CC3CCCCN3C)c2=O)on1` (centres unmarked) [Example 275] are 304 nM and 333 nM.
`Cn1cc(Cn2c(=O)[nH]c3c(C(N)=O)cc(S(=O)(=O)NC4(C)CC4)cc3c2=O)cn1` [Example 424, 6-[(1-Methylcyclopropyl)sulfamoyl]-3-[(1-methylpyrazol-4-yl)methyl]-2,4-dioxo-1H-quinazoline-8-carboxamide]: the IC50 in the test with PARG in HeLa cell line (setting [2]) is 13000 nM; at Human Full Length PARG (read-out: PARG Biochem IC50) it was 223 nM.
